Data from paper PMC4330362, “The ATP-mediated formation of the YgjD–YeaZ–YjeE complex is required for the biosynthesis of tRNA t^6A in Escherichia coli” (Nucleic Acids Research, 2015).

Experiments:
YgjD–YeaZ [1] = biological target: T1, YgjD–YeaZ (Escherichia coli, UniProt P05852+P76256); assay: crystal structure […] A; type: binding; settings: cocrystallised with ATP and MgCl2; two ADP: YgjD active site (Mg2+, Fe) and YgjD-YeaZ interface; no heat signal by ITC
T1 construct: gene tsaD; 1:1 heterodimer of full-length YgjD (337 residues) and YeaZ (231 residues), each C-terminally 6xHis tagged, expressed in E. coli BL21(DE3); nucleotide sites in the YgjD active site and at the YgjD-YeaZ interface

YjeE [2] = biological target: T2, YjeE (Escherichia coli, UniProt P0AF67); assay: ITC; type: binding
T2 construct: gene tsaE; full length, C-terminal Strep II tag, expressed in E. coli BL21(DE3) from pET28a; monomer-dimer equilibrium

YjeE [3] = biological target: T3, YjeE (Escherichia coli, UniProt P0AF67, W109A); assay: ITC; type: binding
T3 construct: gene tsaE; full length, C-terminal Strep II tag, expressed in E. coli BL21(DE3) from pET28a; monomer-dimer equilibrium

YgjD–YeaZ [4] = biological target: T1, YgjD–YeaZ; assay: ITC; type: binding
YgjD = biological target: T4, YgjD (Escherichia coli, UniProt P05852); assay: ITC; type: binding
T4 construct: gene tsaD; full length (337 residues), C-terminal 6xHis tag, expressed in E. coli BL21(DE3) from pET9a; homodimer in solution

YgjD–YeaZ [5] = biological target: T5, YgjD–YeaZ (Escherichia coli, UniProt P05852+P76256, P05852:V85E); assay: crystal structure; type: binding; settings: crystallised in presence of ATP; no nucleotide at the interface
T5 construct: gene tsaD; 1:1 heterodimer of full-length YgjD (337 residues) and YeaZ (231 residues), each C-terminally 6xHis tagged, expressed in E. coli BL21(DE3); nucleotide sites in the YgjD active site and at the YgjD-YeaZ interface

YjeE [6] = biological target: T6, YjeE (Escherichia coli, UniProt P0AF67, Y82A); assay: ITC; type: binding
T6 construct: gene tsaE; full length, C-terminal Strep II tag, expressed in E. coli BL21(DE3) from pET28a; monomer-dimer equilibrium

[7] = biological target: YeaZ (Salmonella typhimurium) (UniProt Q7CQE0); settings: cited from earlier work
[8] = tested on: Nc1ncnc2c1ncn2[C@@H]1O[C@H](COP(=O)(O)OP(=O)(O)OP(=O)(O)O)[C@@H](O)[C@H]1O; assay: purified protein; settings: 50 mM HEPES pH 7.5, 20 °C, YjeE at 2 molar equivalents
[9] = biological target: the molecule itself; assay: SEC; HiLoad 16/60 Superdex 75 pg; single proteins and equimolar mixture

With `Nc1ncnc2c1ncn2[C@@H]1O[C@H](COP(=O)(O)OP(=O)(O)O)[C@@H](O)[C@H]1O` [ADP] the “crystal structure 2.3 A” value (YgjD–YeaZ [1]) was “An ADP molecule could unequivocally fit the density”, the Kd (YjeE [2]) was 6.54 ± 0.053 µM and the Kd (YjeE [3]) was 4.83 ± 0.022 µM.

`Nc1ncnc2c1ncn2[C@@H]1O[C@H](COP(=O)(O)CP(=O)(O)OP(=O)(O)O)[C@@H](O)[C@H]1O` [AMPCPP] showed a Kd (YgjD–YeaZ [4]) of 0.7 ± 0.011 µM and a Kd (YgjD) of 1.62 ± 0.088 µM.

For `Nc1ncnc2c1ncn2[C@@H]1O[C@H](COP(=O)(O)OP(=O)(O)OP(=O)(O)O)[C@@H](O)[C@H]1O` [ATP], the crystal structure (YgjD–YeaZ [5]) was “YgjD^V85E(ATP)–YeaZ crystal structures under accession number”.

In the case of `Nc1ncnc2c1ncn2[C@@H]1O[C@H](CO[P@](=O)(O)O[P@](=O)(O)O[P@@](=O)(O)S)[C@@H](O)[C@H]1O` [ATPγS], the Kd (YjeE [2]) is reported as 20.4 ± 1.32 µM and the Kd (YjeE [6]) is reported as 8.9 ± 0.013 µM.

In the case of YgjD (from UniProt P40731), the Kd [7] is listed as 0.3 µM.

In the case of “YgjD–YeaZ–2xYjeE complex (Escherichia coli K-12)”, the Km [8] is reported as 644 µM and the kcat [8] is reported as 0.4 s⁻¹.

B1: YgjD (TsaD) (enzyme, Escherichia coli K-12, UniProt P05852 1-337, looked up)
chain: MRVLGIETSCDETGIAIYDDEKGLLANQLYSQVKLHADYGGVVPELASRDHVRKTVPLIQAALKESGLTAKDIDAVAYTAGPGLVGALLVGATVGRSLAFAWDVPAIPVHHMEGHLLAPMLEDNPPEFPFVALLVSGGHTQLISVTGIGQYELLGESIDDAAGEAFDKTAKLLGLDYPGGPLLSKMAAQGTAGRFVFPRPMTDRPGLDFSFSGLKTFAANTIRDNGTDDQTRADIARAFEDAVVDTLMIKCKRALDQTGFKRLVMAGGVSANRTLRAKLAEMMKKRRGEVFYARPEFCTDNGAMIAYAGMVRFKAGATADLGVSVRPRWPLAELPAA
notes: YgjD (TsaD), Escherichia coli K-12, 337 residues; gene amplified from genomic DNA, cloned in pET9a; Alone it is a homodimer by gel filtration and SAXS; also called Ec–YgjD; source: E. coli BL21(DE3), purified (details in the Supplementary Materials)
In the case of B1, the “stoichiometry N” value [9] is reported as 2.
